Experimental data as given in patent US6589953B2, “Indole derivatives as 5-HT1B and 5-HT1D agonists” (Pierre Fabre Medicament, priority 1997, dated 2003).

SMILES | melting point
Cl.NCCc1c[nH]c2ccc(OCC(=O)N3CCN(c4ccc(-c5nn[nH]n5)cc4)CC3)cc12 | 225 to 227 °C
NCCc1c[nH]c2ccc(OCC(=O)N3CCN(c4ccc(-c5nc6ccccc6s5)cc4)CC3)cc12.O=C(O)/C=C/C(=O)O | 156 to 160 °C
NCCc1c[nH]c2ccc(OCC(=O)N3CCN(c4ccc(C5=NCCO5)cc4)CC3)cc12.O=C(O)/C=C/C(=O)O | 170 °C
Cc1ccc(-c2nnc(-c3ccc(N4CCN(C(=O)COc5ccc6[nH]cc(CCN)c6c5)CC4)cc3)o2)cc1.O=C(O)/C=C/C(=O)O | 135 °C
Cl.Cl.NCCc1c[nH]c2ccc(OCC(=O)N3CCN(c4ccc(-c5ncco5)cc4)CC3)cc12 | 64 to 66 °C (dec.)
NCCc1c[nH]c2ccc(OCC(=O)N3CCN(c4ccc(-c5nnc(-c6ccccc6)o5)cc4)CC3)cc12.O=C(O)/C=C/C(=O)O | 170 °C
Cc1ccccc1-c1nnc(-c2ccc(N3CCN(C(=O)COc4ccc5[nH]cc(CCN)c5c4)CC3)cc2)o1.O=C(O)/C=C/C(=O)O | 123 °C
NCCc1c[nH]c2ccc(OCC(=O)N3CCN(c4ccc(-c5ccncc5)cc4)CC3)cc12.O=C(O)/C=C/C(=O)O | 176 °C
NCCc1c[nH]c2ccc(OCC(=O)N3CCN(c4ccc(-c5cccs5)cc4)CC3)cc12.O=C(O)/C=C/C(=O)O | 154 to 156 °C
